Test results taken from patent publication US9833497B2, “Human originated EGF domain proteins and use of the same” (CHENGDU SOURCEBIO LIMITED-LIABILITY COMPANY, priority 2013, dated 2017).

Experiments:
Format in all cases: cell-based
Citrobacter diversus = assay: MIC against Gram-negative bacteria: Citrobacter diversus; conditions: 5×10^5 CFU/mL; for MIC against C. diversus: Citrobacter diversus
In short: (§1)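 First, colonies from LB agar were grown in LB at 37° C, 185 rpm, to McFarland turbidity 0.5, then centrifuged and resuspended in fresh LB. Next, wells received 5×10^5 CFU/mL bacteria plus two-fold serially diluted EGF domain protein (triplicate). Finally, plates were shaken at 37° C and the no-growth concentration taken as MIC.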

Enterobacter cloacae = assay: MIC against Gram-negative bacteria: Enterobacter cloacae; conditions: 5×10^5 CFU/mL; for MIC against E. cloacae: Enterobacter cloacae
In short: as §1

Moraxella catarrhalis = assay: MIC against Gram-negative bacteria: Moraxella catarrhalis; conditions: 5×10^5 CFU/mL; for MIC against M. catarrhalis: Moraxella catarrhalis
In short: as §1

Pseudomonas aeruginosa = assay: MIC against Gram-negative bacteria: Pseudomonas aeruginosa; conditions: 5×10^5 CFU/mL; for MIC against P. aeruginosa: Pseudomonas aeruginosa
In short: as §1

Aeromonas hydrophila = assay: MIC against Gram-negative bacteria: Aeromonas hydrophila; conditions: 5×10^5 CFU/mL; for MIC against A. hydrophila: Aeromonas hydrophila
In short: as §1

Proteus vulgaris = assay: MIC against Gram-negative bacteria: Proteus vulgaris; conditions: 5×10^5 CFU/mL; for MIC against P. vulgaris: Proteus vulgaris
In short: as §1

Klebsiella pneumonia = assay: MIC against Gram-negative bacteria: Klebsiella pneumonia; conditions: 5×10^5 CFU/mL; for MIC against K. pneumonia: Klebsiella pneumonia
In short: as §1

Serratia marcescens = assay: MIC against Gram-negative bacteria: Serratia marcescens; conditions: 5×10^5 CFU/mL; for MIC against S. marcescens: Serratia marcescens
In short: as §1

E. coli DH5α = assay: Antibacterial activity: MIC and growth curve against E. coli DH5α in 96-well plate; conditions: minimal inhibitory concentration against E. coli DH5α; 96-well plate, 5×10^5 CFU/mL, 37° C., judged after 8 h
In short: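 Log-phase DH5α (OD600 about 0.5, 37° C, 185 rpm in LB) was pelleted, resuspended in fresh LB and seeded at 5×10^5 CFU/mL with recombinant protein at 50, 25 and 12.5 μg/mL (two-fold series), in triplicate. Plates were shaken at 175 rpm, 37° C, and OD600 was read every 30 min. MIC was the lowest concentration with no growth.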

E. coli BL21 = assay: MIC against Gram-negative bacteria: E. coli BL21; conditions: 5×10^5 CFU/mL
In short: as §1

Proteus mirabilis = assay: MIC against Gram-negative bacteria: Proteus mirabilis; conditions: 5×10^5 CFU/mL; for MIC against P. mirabilis: Proteus mirabilis
In short: as §1

[1] = E. coli BL21, 96-well plate, 37° C., 10 h
[2] = E. coli BL21, 10 h cultivation at 37° C.
[3] = 10 h cultivation at 37° C., two-fold serial dilution

Substance: PRT717 (DLNECLVFGTCSHQCINVEGSYKCVCDQNFQERNNTCI; listed as Homo sapiens)
- MIC C. diversus (Citrobacter diversus; 96-well plate, 37° C., 10 h): 25 µg/mL
- MIC E. cloacae (Enterobacter cloacae; 96-well plate, 37° C., 10 h): 50 µg/mL
- MIC M. catarrhalis (Moraxella catarrhalis; 96-well plate, 37° C., 10 h): 50 µg/mL
- MIC P. aeruginosa (Pseudomonas aeruginosa; 96-well plate, 37° C., 10 h): 50 µg/mL
- MIC A. hydrophila (Aeromonas hydrophila; 96-well plate, 37° C., 10 h): 12.5 µg/mL
- MIC P. vulgaris (Proteus vulgaris; 96-well plate, 37° C., 10 h): 12.5 µg/mL
- MIC K. pneumonia (Klebsiella pneumonia; 96-well plate, 37° C., 10 h): 12.5 µg/mL
- MIC S. marcescens (Serratia marcescens; 96-well plate, 37° C., 10 h): 50 µg/mL
- MIC (E. coli DH5α): 50 µg/mL
- MIC E. coli BL21 (E. coli BL21; 96-well plate, 37° C., 10 h): 12.5 µg/mL
- MIC P. mirabilis (Proteus mirabilis; 96-well plate, 37° C., 10 h): 25 µg/mL

Substance: PRT1337 (QTSACGPYVQFCHIHATCEYSNGTASCICKAGYEGDGTLCS; listed as Homo sapiens)
- MIC against C. diversus (Citrobacter diversus; 96-well plate, 37° C., 10 h): 25 µg/mL
- MIC against E. cloacae (Enterobacter cloacae; 96-well plate, 37° C., 10 h): 50 µg/mL
- MIC against M. catarrhalis (Moraxella catarrhalis; 96-well plate, 37° C., 10 h): 12.5 µg/mL
- MIC against P. aeruginosa (Pseudomonas aeruginosa; 96-well plate, 37° C., 10 h): 12.5 µg/mL
- MIC against A. hydrophila (Aeromonas hydrophila; 96-well plate, 37° C., 10 h): 25 µg/mL
- MIC against P. vulgaris (Proteus vulgaris; 96-well plate, 37° C., 10 h): 50 µg/mL
- MIC against K. pneumonia (Klebsiella pneumonia; 96-well plate, 37° C., 10 h): 25 µg/mL
- MIC against S. marcescens (Serratia marcescens; 96-well plate, 37° C., 10 h): 12.5 µg/mL
- MIC (E. coli DH5α): 12.5 µg/mL
- MIC against E. coli BL21 (E. coli BL21; [1]): 50 µg/mL
- MIC against P. mirabilis (Proteus mirabilis; 96-well plate, 37° C., 10 h): 25 µg/mL

Substance: PRT252 (TAACTNTSCSGHGECVETINNYTCKCDPGFSGLKCE; listed as Homo sapiens)
- MIC (μg/mL) C. diversus (Citrobacter diversus; C. diversus, 10 h cultivation at 37° C.): 25 µg/mL
- MIC (μg/mL) E. cloacae (Enterobacter cloacae; E. cloacae, 10 h cultivation at 37° C.): 25 µg/mL
- MIC (μg/mL) M. catarrhalis (Moraxella catarrhalis; M. catarrhalis, 10 h cultivation at 37° C.): 12.5 µg/mL
- MIC (μg/mL) P. aeruginosa (Pseudomonas aeruginosa; P. aeruginosa, 10 h cultivation at 37° C.): 25 µg/mL
- MIC (μg/mL) A. hydrophila (Aeromonas hydrophila; A. hydrophila, 10 h cultivation at 37° C.): 12.5 µg/mL
- MIC (μg/mL) P. vulgaris (Proteus vulgaris; P. vulgaris, 10 h cultivation at 37° C.): 12.5 µg/mL
- MIC (μg/mL) K. pneumonia (Klebsiella pneumonia; K. pneumonia, 10 h cultivation at 37° C.): 12.5 µg/mL
- MIC (μg/mL) S. marcescens (Serratia marcescens; S. marcescens, 10 h cultivation at 37° C.): 25 µg/mL
- MIC (E. coli DH5α): 25 µg/mL
- MIC (μg/mL) E. coli BL21 (E. coli BL21; [2]): 12.5 µg/mL
- MIC (μg/mL) P. mirabilis (Proteus mirabilis; P. mirabilis, 10 h cultivation at 37° C.): 25 µg/mL

Substance: PRT1168 (NINDCSQNPCHNGGTCRDLVNDFYCDCKNGWKGKTCH; listed as Homo sapiens)
- MIC C. diversus (Citrobacter diversus; [3]): 12.5 µg/mL
- MIC E. cloacae (Enterobacter cloacae; [3]): 12.5 µg/mL
- MIC M. catarrhalis (Moraxella catarrhalis; [3]): 50 µg/mL
- MIC P. aeruginosa (Pseudomonas aeruginosa; [3]): 25 µg/mL
- MIC A. hydrophila (Aeromonas hydrophila; [3]): 50 µg/mL
- MIC P. vulgaris (Proteus vulgaris; [3]): 50 µg/mL
- MIC K. pneumonia (Klebsiella pneumonia; [3]): 50 µg/mL
- MIC S. marcescens (Serratia marcescens; [3]): 12.5 µg/mL
- MIC (E. coli DH5α): 25 µg/mL
- MIC E. coli BL21 (E. coli BL21; [3]): 12.5 µg/mL
- MIC P. mirabilis (Proteus mirabilis; [3]): 12.5 µg/mL

Substance: PRT677 (ETDECRLNQNICGHGECVPGPPDYSCHCNPGYRSHPQHRYCV; listed as Homo sapiens)
- MIC C. diversus (Citrobacter diversus; 96-well plate, 37° C., 10 h): 25 µg/mL
- MIC E. cloacae (Enterobacter cloacae; 96-well plate, 37° C., 10 h): 25 µg/mL
- MIC M. catarrhalis (Moraxella catarrhalis; 96-well plate, 37° C., 10 h): 25 µg/mL
- MIC P. aeruginosa (Pseudomonas aeruginosa; 96-well plate, 37° C., 10 h): 12.5 µg/mL
- MIC A. hydrophila (Aeromonas hydrophila; 96-well plate, 37° C., 10 h): 12.5 µg/mL
- MIC P. vulgaris (Proteus vulgaris; 96-well plate, 37° C., 10 h): 12.5 µg/mL
- MIC K. pneumonia (Klebsiella pneumonia; 96-well plate, 37° C., 10 h): 50 µg/mL
- MIC S. marcescens (Serratia marcescens; 96-well plate, 37° C., 10 h): 50 µg/mL
- MIC (E. coli DH5α): 50 µg/mL
- MIC E. coli BL21 (E. coli BL21; 96-well plate, 37° C., 10 h): 25 µg/mL
- MIC P. mirabilis (Proteus mirabilis; 96-well plate, 37° C., 10 h): 50 µg/mL

Substance: PRT1201 (DIDECALRTHTCWNDSACINLAGGFDCLCPSGPSCS; listed as Homo sapiens)
- MIC against C. diversus (Citrobacter diversus; 96-well plate, 37° C., 10 h): 12.5 µg/mL
- MIC against E. cloacae (Enterobacter cloacae; 96-well plate, 37° C., 10 h): 50 µg/mL
- MIC against M. catarrhalis (Moraxella catarrhalis; 96-well plate, 37° C., 10 h): 50 µg/mL
- MIC against P. aeruginosa (Pseudomonas aeruginosa; 96-well plate, 37° C., 10 h): 12.5 µg/mL
- MIC against A. hydrophila (Aeromonas hydrophila; 96-well plate, 37° C., 10 h): 25 µg/mL
- MIC against P. vulgaris (Proteus vulgaris; 96-well plate, 37° C., 10 h): 12.5 µg/mL
- MIC against K. pneumonia (Klebsiella pneumonia; 96-well plate, 37° C., 10 h): 25 µg/mL
- MIC against S. marcescens (Serratia marcescens; 96-well plate, 37° C., 10 h): 25 µg/mL
- MIC (E. coli DH5α): 12.5 µg/mL
- MIC against E. coli BL21 (E. coli BL21; [1]): 50 µg/mL
- MIC against P. mirabilis (Proteus mirabilis; 96-well plate, 37° C., 10 h): 25 µg/mL

Substance: PRT1446 (FLSPCVDDCGPYGQCKLLRTHNYLYAACECKAGWRGWGCT; listed as Homo sapiens)
- MIC against C. diversus (Citrobacter diversus; 10 h cultivation at 37° C.): 12.5 µg/mL
- MIC against E. cloacae (Enterobacter cloacae; 10 h cultivation at 37° C.): 12.5 µg/mL
- MIC against M. catarrhalis (Moraxella catarrhalis; 10 h cultivation at 37° C.): 12.5 µg/mL
- MIC against P. aeruginosa (Pseudomonas aeruginosa; 10 h cultivation at 37° C.): 25 µg/mL
- MIC against A. hydrophila (Aeromonas hydrophila; 10 h cultivation at 37° C.): 25 µg/mL
- MIC against P. vulgaris (Proteus vulgaris; 10 h cultivation at 37° C.): 25 µg/mL
- MIC against K. pneumonia (Klebsiella pneumonia; 10 h cultivation at 37° C.): 25 µg/mL
- MIC against S. marcescens (Serratia marcescens; 10 h cultivation at 37° C.): 12.5 µg/mL
- MIC (E. coli DH5α): 12.5 µg/mL
- MIC against E. coli BL21 (E. coli BL21; [2]): 12.5 µg/mL
- MIC against P. mirabilis (Proteus mirabilis; 10 h cultivation at 37° C.): 12.5 µg/mL
